# Assay results from US7892218B2, “pH reducing formulation” (Rostam Ltd., priority 2004, dated 2011).
# What was measured:
# [1] = Procedure: The pH lowering ability of glycolide in its crystalline form, obtained from Purac Ltd., Holland, was tested in plasma at 37° C. as a function of time, compared to that of lactide and citric acid (also in crystalline form). All three materials were taken such as to eventually yield equal molar amounts of carboxylic acid groups.
# [2] = remark: listed apart in the source
# Procedure: The same experiment was repeated by comparing the pH lowering kinetics of the same compounds, deposited onto a polymeric support in the form of weighed (240 mg), rectangular shaped pieces of non-woven (NW) tampon cloth (hereinafter referred to as “strips”) by evaporation from an acetone solution, substantially as described in WO 02/17981 and U.S. 2002/0045873 whose contents are hereby incorporated by reference in their entireties. The strips may be incorporated in a tampon. The strips were dipped in plasma at 37° C.
SMILES,degradation / acid release kinetics (in words) [1],"release behaviour on strips (in words) ([2]; non-woven strips, plasma, 37° C. (FIG. 2))",time in which degradation was completed [1],change in degradation rate when deposited on strips [2]
O=C(O)CC(O)(CC(=O)O)C(=O)O [citric acid],burst-like immediate release,behaved as previously described,–,–
O=C1COC(=O)CO1 [glycolide],significantly faster than that of lactide,–,approximately 40 minutes,two-fold increase
CC1OC(=O)C(C)OC1=O (stereo not shown) [lactide],–,–,approximately 120 minutes,two-fold increase
